Here are results for 10 compounds from PubChem BioAssay (NCI).

SMILES strings stand for the structures. Several values for one entry are separate records, joined by “and”; a condition that tells them apart may be missing. Identical values can stand only once.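 These data come from cells grown in 96-well plates and exposed to compound for 48 hours at five concentrations. Abbreviation: GI50, concentration required for 50% inhibition of growth. Definition used: TGI = concentration required for complete inhibition of growth.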

Test systems include HOP-62 NSCLC; CCRF-CEM leukemia; NCI-H226 lung; SN12C renal; CAKI-1 renal; U251 CNS; SR leukemia; NCI-H23 lung; HCC-2998 colon; OVCAR-3 ovarian.
Common to all, as to experiment: NCI-60 cell line screen, 48 h

Consider `O=C1CC(NC(=O)C(F)(F)F)c2c1csc2Br` (configuration not stated), for which the TGI with HOP-62 NSCLC was over 100 µM; in the experiment on CCRF-CEM leukemia, over 100 µM; in the experiment with NCI-H226 lung it was over 100 µM; with SN12C renal, over 100 µM; in the experiment with CAKI-1 renal, 30.5 µM; with U251 CNS, over 100 µM. Further, the TGI in the experiment with SR leukemia, in the experiment with NCI-H23 lung, with HCC-2998 colon and with OVCAR-3 ovarian was over 100 µM each time.
In the case of `CC1=C(C(=O)Nc2ccccc2C)C(c2ccc(Cl)c(Cl)c2)C(C(=O)Nc2ccccc2C)=C(C)N1`, the TGI is 66.5 µM in the experiment with HOP-62 NSCLC; 54.8 µM in the experiment with CCRF-CEM leukemia; 43.8 µM in the experiment on NCI-H226 lung; 47.2 µM with SN12C renal; over 100 µM in the experiment on CAKI-1 renal; 40.5 µM with U251 CNS. For the same compound, the TGI in the experiment with SR leukemia came out at 36.8 µM; in the experiment on NCI-H23 lung it was 56.7 µM; with HCC-2998 colon it was 69.9 µM; in the experiment on OVCAR-3 ovarian it was 49.8 µM.
With `CO[C@@H]1/C=C\C=C(/C)C(=O)NC2=CC(=O)C(NCCN(C)C)=C(C[C@@H](C)C[C@@H](OC)[C@@H](O)[C@H](C)/C=C(\C)[C@H]1OC(N)=O)C2=O`, the GI50 was 0.0859 µM in the experiment with HOP-62 NSCLC; 0.0344 µM with CCRF-CEM leukemia; 13.5 nM in the experiment with SN12C renal; 485 nM and 1380 nM with CAKI-1 renal; 0.0144 µM with U251 CNS; under 0.0125 µM in the experiment with NCI-H23 lung. The GI50 is 0.0197 µM with HCC-2998 colon; 0.068 µM and 0.0369 µM with OVCAR-3 ovarian. For the same compound, the TGI in the experiment on HOP-62 NSCLC is 17 µM and 19.1 µM; in the experiment with CCRF-CEM leukemia, 3.23 µM and 9.76 µM; in the experiment with NCI-H226 lung it was 31.2 µM and 12.4 µM; with SN12C renal it was 2.78 µM and 3.81 µM; with CAKI-1 renal it was 12.2 µM and 29.2 µM; with U251 CNS it was 8.18 µM. The TGI with SR leukemia is 10.6 µM; in the experiment on NCI-H23 lung it was 7.14 µM; in the experiment with OVCAR-3 ovarian it was 6.26 µM and 2.39 µM.
Turning to `CCN(CC)CCCC(C)Nc1c2ccc(Cl)cc2nc2ccc(OC)cc12` (configuration not stated), the GI50 with HOP-62 NSCLC was 1.61 µM; in the experiment with CCRF-CEM leukemia, 1.48 µM; with SN12C renal, 1590 nM; in the experiment on CAKI-1 renal, 1990 nM; in the experiment with U251 CNS it was 1.89 µM; with SR leukemia, 1.86 µM. The TGI was 3.98 µM and 8.04 µM with HOP-62 NSCLC; 7.62 µM and 5.45 µM with CCRF-CEM leukemia; 10.7 µM with NCI-H226 lung; 7.16 µM and 9.28 µM with SN12C renal; 4.37 µM and 4.5 µM in the experiment on CAKI-1 renal; 4.1 µM and 3.39 µM in the experiment with U251 CNS. Further, the TGI is 6 µM and 5.02 µM in the experiment on SR leukemia; 4.11 µM and 3.27 µM in the experiment on NCI-H23 lung; 2.9 µM and 2.69 µM with HCC-2998 colon; 6.89 µM and 9.8 µM in the experiment with OVCAR-3 ovarian.
`CC1=C2[C@@H](CC1)[C@]1(C)O[C@@](C3CCCCC3)(C[C@H]1OC(=O)CO)[C@H]2OC(=O)/C=C/c1ccccc1`: the GI50 with HOP-62 NSCLC is 12 µM; in the experiment with CCRF-CEM leukemia, 7.45 µM; in the experiment on NCI-H226 lung it was 7.58 µM; in the experiment with SN12C renal, 318 nM; in the experiment with CAKI-1 renal, 5920 nM; in the experiment with U251 CNS, 7.72 µM. The GI50 with SR leukemia was 4.6 µM; with NCI-H23 lung it was 8.65 µM; with HCC-2998 colon, 6.3 µM; with OVCAR-3 ovarian it was 6.92 µM. In addition, the TGI in the experiment with HOP-62 NSCLC came out at 25.5 µM; in the experiment with CCRF-CEM leukemia, 24.1 µM; with NCI-H226 lung, 23.5 µM; with SN12C renal, 15.1 µM; in the experiment with CAKI-1 renal, 22 µM; in the experiment on U251 CNS it was 20.5 µM. Further, the TGI in the experiment on SR leukemia was found to be 17.9 µM; in the experiment with NCI-H23 lung, 26.1 µM; in the experiment with HCC-2998 colon it was 18.4 µM; in the experiment with OVCAR-3 ovarian, 18.7 µM.
For the compound `CC[C@@H]1OC2(C)CC(S(=O)(=O)c3ccccc3O)CC1O2` (some centres not stated), the TGI in the experiment with HOP-62 NSCLC, with CCRF-CEM leukemia, with NCI-H226 lung, in the experiment on SN12C renal, with CAKI-1 renal and with U251 CNS was over 100 µM throughout. Moreover, the TGI with SR leukemia, with NCI-H23 lung, in the experiment on HCC-2998 colon and in the experiment with OVCAR-3 ovarian was over 100 µM in each case.
Take `Cc1[nH]c2ccccc2c1C1Cc2ccccc2N1C(=O)/C=C\C(=O)O` (configuration not stated): the TGI is over 100 µM in the experiment with HOP-62 NSCLC; 94.1 µM in the experiment with CCRF-CEM leukemia; over 100 µM with NCI-H226 lung; over 100 µM in the experiment on SN12C renal; over 100 µM in the experiment on CAKI-1 renal; 70.7 µM in the experiment on U251 CNS. Besides, the TGI in the experiment with SR leukemia was 85.7 µM; in the experiment on NCI-H23 lung, over 100 µM; in the experiment on HCC-2998 colon, over 100 µM; in the experiment on OVCAR-3 ovarian, over 100 µM.
In the case of `ClCc1cccc(Cn2cnc3c(NC45CC6CC(CC(C6)C4)C5)ncnc32)c1`, the GI50 in the experiment on HOP-62 NSCLC was 20.5 µM; with CCRF-CEM leukemia, 16 µM; in the experiment on NCI-H226 lung it was 22.9 µM; with SN12C renal, 21200 nM; in the experiment with CAKI-1 renal, 16800 nM; with U251 CNS, 14.8 µM. Besides, the figures for the GI50 in the experiment on NCI-H23 lung, with HCC-2998 colon and in the experiment with OVCAR-3 ovarian were 19.6 µM, 16.7 µM and 17.6 µM, respectively. The TGI in the experiment on HOP-62 NSCLC is 37.5 µM; with CCRF-CEM leukemia it was over 69.1 µM; in the experiment on NCI-H226 lung, 69.2 µM; with SN12C renal it was 50.9 µM; in the experiment on CAKI-1 renal, 33.2 µM; in the experiment on U251 CNS it was 30.8 µM. Moreover, the TGI was 18.9 µM in the experiment on SR leukemia, 46.4 µM with NCI-H23 lung, 32.2 µM in the experiment on HCC-2998 colon and 35.9 µM in the experiment with OVCAR-3 ovarian.
In the case of `COc1ccccc1N1C(=O)/C(=C/c2ccc(N(CCC#N)CCC#N)cc2C)N=C1c1cc([N+](=O)[O-])ccc1Cl`, the TGI with HOP-62 NSCLC, with CCRF-CEM leukemia, in the experiment on NCI-H226 lung, in the experiment on SN12C renal, in the experiment on CAKI-1 renal and with U251 CNS was over 100 µM in each case. Moreover, the TGI in the experiment with SR leukemia, with NCI-H23 lung, in the experiment on HCC-2998 colon and in the experiment on OVCAR-3 ovarian was over 100 µM each time.
As for `CCOC(=O)c1cc(C#N)c(=O)n(/N=C(\C)c2ccncc2)c1O`, the GI50 in the experiment with HOP-62 NSCLC is over 100 µM; in the experiment on CCRF-CEM leukemia, over 100 µM; with NCI-H226 lung it was over 100 µM; with SN12C renal it was over 100000 nM; with CAKI-1 renal, over 100000 nM; in the experiment on U251 CNS, over 100 µM. The GI50 with SR leukemia, in the experiment on NCI-H23 lung, with HCC-2998 colon and in the experiment with OVCAR-3 ovarian was over 100 µM throughout. Moreover, the TGI in the experiment with HOP-62 NSCLC, in the experiment on CCRF-CEM leukemia, in the experiment with NCI-H226 lung, in the experiment with SN12C renal, with CAKI-1 renal and in the experiment on U251 CNS was over 100 µM throughout. Further, the TGI in the experiment on SR leukemia, in the experiment with NCI-H23 lung, with HCC-2998 colon and in the experiment with OVCAR-3 ovarian was over 100 µM each time.
